Data as given in patent publication US7763615B2, “Ecteinascidin analogs for use as antitumour agents” (priority 2001, dated 2010).
Read-outs that look alike come from different tables or passages of the source.

Tests used:
H-MEC-1 = assay: Inhibition of cells growth by colorimetric assay (SRB), H-MEC-1; type: cell-based; conditions: for CC50: read-out: LC50
In short: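 For 48 hours, cells seeded at 5×10^3 per well were kept in contact with samples spanning 10 to 10^−8 μg/ml after an 18-hour attachment period. Viable biomass was then estimated colorimetrically with sulphorhodamine B at 490 nm.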

[1] = tested on: AML-12, normal mouse liver cells; conditions: 24 h
LOVO = assay: cells; type: cell-based; conditions: LOVO; for CC50: read-out: LC50
In short: (§1)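 SRB colorimetric growth assay: 5×10^3 cells/well, 18 h attachment, 48 h continuous compound exposure at 10–10^−8 μg/ml in DMSO/EtOH/PBS. TCA fixation, SRB stain, OD 490 nm; triplicate wells, GI, TGI and LC derived.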

K562 = assay: cells; type: cell-based; conditions: for CC50: read-out: LC50
In short: as §1

PANC-1 = assay: cells; type: cell-based; conditions: for CC50: read-out: LC50
In short: as §1

DU145 = assay: cells; type: cell-based; conditions: for CC50: read-out: LC50
In short: as §1

IGROV-ET = assay: cells; type: cell-based; conditions: IGROV-ET; for CC50: read-out: LC50
In short: as §1

A549 = assay: cells; type: cell-based; conditions: for GI50: read-out: GI50; for CC50: read-out: LC50
In short: as §1

MEL-28 = assay: cells; type: cell-based; conditions: for CC50: read-out: LC50
In short: as §1

HT29 = assay: cells; type: cell-based; conditions: for CC50: read-out: LC50
In short: as §1

LOVO-DOX = assay: cells; type: cell-based; conditions: LOVO-DOX; for CC50: read-out: LC50
In short: as §1

SK-BR3 = assay: cells; type: cell-based; conditions: for CC50: read-out: LC50
In short: as §1

LNCAP = assay: cells; type: cell-based; conditions: LNCAP; for CC50: read-out: LC50
In short: as §1

IGROV = assay: cells; type: cell-based
In short: as §1

CYP2D6 [2] = molecular target: T1, CYP2D6 (Homo sapiens, UniProt P10635); conditions: 450 min, 10 µM
T1 sequence (P10635 whole entry): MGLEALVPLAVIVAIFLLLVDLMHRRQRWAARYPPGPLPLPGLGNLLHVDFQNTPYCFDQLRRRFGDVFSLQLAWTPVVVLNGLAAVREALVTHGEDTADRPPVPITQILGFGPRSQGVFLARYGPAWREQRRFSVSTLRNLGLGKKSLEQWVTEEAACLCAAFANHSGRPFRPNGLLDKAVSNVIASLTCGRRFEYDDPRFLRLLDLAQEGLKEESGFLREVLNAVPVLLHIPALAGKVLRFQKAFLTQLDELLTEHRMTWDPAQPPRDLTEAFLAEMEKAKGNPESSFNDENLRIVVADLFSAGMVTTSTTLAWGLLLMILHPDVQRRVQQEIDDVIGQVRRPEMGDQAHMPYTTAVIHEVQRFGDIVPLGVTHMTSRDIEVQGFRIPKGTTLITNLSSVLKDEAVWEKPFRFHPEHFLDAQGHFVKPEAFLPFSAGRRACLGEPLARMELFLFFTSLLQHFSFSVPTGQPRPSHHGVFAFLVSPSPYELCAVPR

[3] = tested on: L8, normal rat skeletal muscle cells; conditions: 24 h
Method: In order to assess the cytotoxicity of the drugs to normal cells, we used 96 well plates plated at a density of 5000 cells per well (except for the FDC-P1 which were plated at 12,000 cells per well) with normal cell lines (ATCC, Table 1) maintained as per the directions of the ATCC: AML-12, normal mouse liver cells; NRK-52E, normal rat kidney cells; L8, normal rat skeletal muscle cells; FDC-P1, normal mouse myelogeous stem cells; and H9c2 (2-1), normal rat cardiac muscle cells. The cells in each plate were permitted to settle overnight before adding the test drug.
To each well (100 μl medium) 10 μl of drug in media was added at varying concentrations (1×10-10-0.01 mg/ml final concentration) and further incubated overnight at 37° C. with 5% CO2. After 24 h the following assays were performed. All experiments were repeated at least 3 times and were assayed in duplicate.
MTS assay (CellTiter 96 aqueous) was performed according to the manufacturer's (Promega) directions (for all cell types). Cell viability (mitochondrial activity) is determined via enzymatic conversion of the formazan substrate.

[4] = s9, 60 min, 1 μM
CYP3A4 = CYP3A4 (Homo sapiens, UniProt P08684); conditions: 30 min, 10 µM
CYP3A4, sequence (P08684 whole entry): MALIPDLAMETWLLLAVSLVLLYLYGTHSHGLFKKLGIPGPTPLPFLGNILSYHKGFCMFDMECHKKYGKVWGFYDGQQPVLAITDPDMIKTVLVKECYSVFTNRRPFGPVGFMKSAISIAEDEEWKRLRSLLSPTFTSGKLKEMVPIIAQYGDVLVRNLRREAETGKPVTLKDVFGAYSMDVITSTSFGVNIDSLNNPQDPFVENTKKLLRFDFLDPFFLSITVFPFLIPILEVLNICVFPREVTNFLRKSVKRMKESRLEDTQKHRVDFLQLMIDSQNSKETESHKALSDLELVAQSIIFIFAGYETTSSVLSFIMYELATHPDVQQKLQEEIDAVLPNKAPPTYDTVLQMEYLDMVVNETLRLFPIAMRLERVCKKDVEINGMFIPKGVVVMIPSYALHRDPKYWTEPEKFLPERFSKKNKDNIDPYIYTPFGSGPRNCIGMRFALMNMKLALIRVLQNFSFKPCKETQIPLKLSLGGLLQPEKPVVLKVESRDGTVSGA

[5] = tested on: H9c2 (2-1), normal rat cardiac muscle cells; conditions: 24 h
SK-OV3 = assay: Inhibition of cells growth by colorimetric assay (SRB), SK-OV3; type: cell-based; conditions: for CC50: read-out: LC50
In short: as §1

[6] = tested on: NRK-52E, normal rat kidney cells; conditions: 24 h
[7] = tested on: FDC-P1, normal mouse myelogeous stem cells; conditions: 24 h
(HEPG2) = conditions: human, 24 h, 30 μM
[8] = 60 min
CYP2D6 [9] = molecular target: T1, CYP2D6; assay: in vitro; conditions: CYP2D6 (% inhibition)
B16 melanoma = conditions: mice, U.S. Pat. No. 5,149,804; cited from earlier work
P388 lymphoma = conditions: mice, U.S. Pat. No. 5,149,804; cited from earlier work
Lewis lung carcinoma = conditions: mice, U.S. Pat. No. 5,149,804; cited from earlier work
[10] = H-MEC-1, 48 hours exposure, SRB

`COc1c(C)cc2c(c1O)[C@@H]1C3[C@@H]4SC[C@]5(NC(C)Cc6c5[nH]c5ccc(F)cc65)C(=O)COC[C@@H](c5c6c(c(C)c(OC(C)=O)c54)OCO6)N3[C@@H](O)[C@H](C2)N1C` (stereo partly shown) [Compound 42] showed a GI50 (H-MEC-1; [10]) of 40.4 nM, a TGI (H-MEC-1; [10]) of 2.47E−07 Molar and a CC50 (H-MEC-1; [10]) of 12700 nM. For the same compound, the “Solubility Dulbecco's PBS pH 7.4” value was 10.37 μM, the Liver [1] was 1.86E−07 and the GI50 (LOVO; 48 hours exposure, SRB) was 13.5 nM. The TGI (LOVO; 48 hours exposure, SRB) was 4.37E−08 Molar, the CC50 (LOVO; 48 hours exposure, SRB) was 127 nM and the GI50 (K562; K562, 48 hours exposure, SRB) was 4.77 nM. It also gave a TGI (K562; K562, 48 hours exposure, SRB) of 9.15E−09 Molar, a CC50 (K562; K562, 48 hours exposure, SRB) of 2810 nM and a GI50 (PANC-1; PANC-1, 48 hours exposure, SRB) of 16.9 nM. For the same compound, the TGI (PANC-1; PANC-1, 48 hours exposure, SRB) was 8.25E−08 Molar, the CC50 (PANC-1; PANC-1, 48 hours exposure, SRB) was 12700 nM and the GI50 (DU145; DU145, 48 hours exposure, SRB) was 3.51 nM. For the same compound, the TGI (DU145; DU145, 48 hours exposure, SRB) was 7.97E−09 Molar, the CC50 (DU145; DU145, 48 hours exposure, SRB) was 12.7 nM and the GI50 (IGROV-ET; 48 hours exposure, SRB) was 43.2 nM. The TGI (IGROV-ET; 48 hours exposure, SRB) was 9.42E−08 Molar, the CC50 (IGROV-ET; 48 hours exposure, SRB) was 12700 nM and the TGI (A549; A549, 48 hours exposure, SRB) was 4.09E−08 Molar. It also gave a GI50 (A549; A549, 48 hours exposure, SRB) of 22 nM, a CC50 (A549; A549, 48 hours exposure, SRB) of 75.9 nM and a GI50 (MEL-28; MEL-28, 48 hours exposure, SRB) of 0.404 nM. It also gave a TGI (MEL-28; MEL-28, 48 hours exposure, SRB) of 9.77E−10 Molar, a CC50 (MEL-28; MEL-28, 48 hours exposure, SRB) of 6.19 nM and a GI50 (HT29; HT29, 48 hours exposure, SRB) of 34.1 nM. For the same compound, the TGI (HT29; HT29, 48 hours exposure, SRB) was 1.42E−07 Molar, the CC50 (HT29; HT29, 48 hours exposure, SRB) was 12700 nM and the GI50 (LOVO-DOX; 48 hours exposure, SRB) was 45.9 nM. The TGI (LOVO-DOX; 48 hours exposure, SRB) was 2.05E−07 Molar, the CC50 (LOVO-DOX; 48 hours exposure, SRB) was 12700 nM and the GI50 (SK-BR3; SK-BR3, 48 hours exposure, SRB) was 6.63 nM. For the same compound, the TGI (SK-BR3; SK-BR3, 48 hours exposure, SRB) was 2.44E−08 Molar, the CC50 (SK-BR3; SK-BR3, 48 hours exposure, SRB) was 87.3 nM and the GI50 (LNCAP; 48 hours exposure, SRB) was 3.74 nM. For the same compound, the TGI (LNCAP; 48 hours exposure, SRB) was 6.61E−09 Molar, the CC50 (LNCAP; 48 hours exposure, SRB) was 11.7 nM and the GI50 (IGROV; 48 hours exposure, SRB) was 2.44 nM. The TGI (IGROV; 48 hours exposure, SRB) was 5.12E−09 Molar, the CC50 (IGROV; read-out: LC50, 48 hours exposure, SRB) was 10.7 nM and the “CYP2D6 (% inhibition)” value (CYP2D6 [2]) was 19 % inhibition. The Skeletal [3] was 3.37E−08, the “Human Liver S9 Metabolic Stability (% remaining)” value [4] was 5 % remaining and the “CYP3A4 (% inhibition)” value (CYP3A4) was 78 % inhibition. The Heart [5] was 1.42E−07, the GI50 (SK-OV3; SK-OV3, 48 hours exposure, SRB) was 7.37 nM and the TGI (SK-OV3; SK-OV3, 48 hours exposure, SRB) was 7.92E−07 Molar. It also gave a CC50 (SK-OV3; SK-OV3, 48 hours exposure, SRB) of 12700 nM, a Kidney [6] of 1.12E−09 and a Myelo [7] of 6.41E−08. The “Cell Viability (% inhibition)” value ((HEPG2)) was 67 % inhibition and the “log D n-Octanol-Dulbecco's PBS pH 7.4” value [8] was greater than 4.8.
For `COc1c(C)cc2c(c1O)[C@@H]1C3[C@@H]4SC[C@]5(NC(C)Cc6c5[nH]c5ccccc65)C(=O)COC[C@@H](c5c6c(c(C)c(OC(C)=O)c54)OCO6)N3[C@@H](O)[C@H](C2)N1C` (stereo partly shown) [Compound 44], the inhibition at 450 min, 10 µM (CYP2D6 [9]) was 16%, the GI50 (H-MEC-1; H-MEC-1) was 75.3 nM and the TGI (H-MEC-1; H-MEC-1) was 1.31E−06. For the same compound, the CC50 (H-MEC-1; H-MEC-1) was no less than 13000 nM, the “Solubility Dulbecco's PBS pH 7.4” value was 20.69 μM and the Liver [1] was 4.33E−07. It also gave a GI50 (LOVO) of 27.1 nM, a TGI (LOVO) of 5.10E−08 and a CC50 (LOVO) of 96.1 nM. The GI50 (K562; K562) was 3.94 nM, the TGI (K562; K562) was 9.38E−09 and the CC50 (K562; K562) was 107 nM. It also gave a GI50 (PANC-1; PANC-1) of 56.7 nM, a TGI (PANC-1; PANC-1) of 1.55E−07 and a CC50 (PANC-1; PANC-1) of no less than 13000 nM. It also gave a GI50 (DU145; DU145) of 6.54 nM, a TGI (DU145; DU145) of 1.18E−08 and a CC50 (DU145; DU145) of no less than 13000 nM. The GI50 (IGROV-ET) was 28.5 nM, the TGI (IGROV-ET) was 7.06E−08 and the CC50 (IGROV-ET) was 130 nM. It also gave a TGI (A549; A549) of 4.76E−08, a GI50 (A549; A549) of 27.4 nM and a CC50 (A549; A549) of 82.3 nM. For the same compound, the GI50 (MEL-28; MEL-28) was 2.63 nM, the TGI (MEL-28; MEL-28) was 5.22E−09 and the CC50 (MEL-28; MEL-28) was 10.3 nM. For the same compound, the GI50 (HT29; HT29) was 59.8 nM, the TGI (HT29; HT29) was 4.59E−07 and the CC50 (HT29; HT29) was no less than 13000 nM. For the same compound, the GI50 (LOVO-DOX) was 91 nM, the TGI (LOVO-DOX) was 8.53E−07 and the CC50 (LOVO-DOX) was no less than 13000 nM. For the same compound, the GI50 (SK-BR3; SK-BR3) was 12.7 nM, the TGI (SK-BR3; SK-BR3) was 4.27E−08 and the CC50 (SK-BR3; SK-BR3) was 177 nM. For the same compound, the GI50 (LNCAP) was 4.3 nM, the TGI (LNCAP) was 8.84E−09 and the CC50 (LNCAP) was 31.1 nM. It also gave a GI50 (IGROV) of 4.29 nM, a TGI (IGROV) of 1.22E−08 and a CC50 (IGROV; read-out: LC50) of 93 nM. For the same compound, the Skeletal [3] was 4.02E−08, the “Human Liver S9 Metabolic Stability (% remaining)” value [4] was 4 % remaining and the “CYP3A4 (% inhibition)” value (CYP3A4) was 72 % inhibition. For the same compound, the Heart [5] was 5.20E−06, the GI50 (SK-OV3; SK-OV3) was 37.5 nM and the TGI (SK-OV3; SK-OV3) was 1.31E−07. It also gave a CC50 (SK-OV3; SK-OV3) of no less than 13000 nM, a Kidney [6] of 4.15E−07 and a Myelo [7] of 1.21E−07. The “Cell Viability (% inhibition)” value ((HEPG2)) was 73 % inhibition and the “log D n-Octanol-Dulbecco's PBS pH 7.4” value [8] was greater than 4.9.
For `COc1c(C)cc2c(c1O)[C@@H]1C3[C@@H]4SC[C@]5(NCCc6c5[nH]c5ccccc65)C(=O)OC[C@@H](c5c6c(c(C)c(OC(C)=O)c54)OCO6)N3[C@@H](O)[C@H](C2)N1C` (stereo partly shown) [Ecteinascidin 736, ecteinascidin 736], the “in vivo protection against B16 melanoma” value (B16 melanoma) is given as “protect mice in vivo at very low concentrations”, the “in vivo protection against P388 lymphoma” value (P388 lymphoma) is given as “protect mice in vivo at very low concentrations” and the “in vivo protection against Lewis lung carcinoma” value (Lewis lung carcinoma) is given as “protect mice in vivo at very low concentrations”.
